Reference: ChEMBL document CHEMBL4340512, “Discovery of novel triazolo[4,3-b]pyridazin-3-yl-quinoline derivatives as PIM inhibitors” (Eur J Med Chem, 2019)
pIC50: −log10 of the molar value.

Columns and labels:
[1] = test system: MDA-MB-231; assay: Antiproliferative activity against human MDA-MB-231 assessed as combination index at 20 uM incubated for 72 hrs in presence of GI50 dose of GDC-0941 by CellTiter-Glo luminescence assay; assay type: functional
[2] = test system: HL-60; assay: Antiproliferative activity against human HL60 cells incubated for 72 hrs by CellTiter-Glo luminescence assay; assay type: functional; conditions: HL-60, 72 h
[3] = test system: SK-MEL19; assay: Antiproliferative activity against human SK-MEL-19 assessed as combination index at 5 uM incubated for 72 hrs in presence of GI50 dose of Palbociclib by CellTiter-Glo luminescence assay; assay type: functional
[4] = test system: U-87 MG; assay: Antiproliferative activity against human U87MG assessed as combination index at 20 uM incubated for 72 hrs in presence of GI50 dose of Lapatinib by CellTiter-Glo luminescence assay; assay type: functional, U-87MG ATCC
[5] = test system: SK-ES1; assay: Antiproliferative activity against human SK-ES-1 cells incubated for 72 hrs by CellTiter-Glo luminescence assay; assay type: functional; conditions: SK-ES1, 72 h
[6] = test system: MDA-MB-231; assay: Antiproliferative activity against human MDA-MB-231 assessed as combination index at 20 uM incubated for 72 hrs in presence of GI50 dose of Palbociclib by CellTiter-Glo luminescence assay; assay type: functional
[7] = test system: K562; assay: Antiproliferative activity against human K562 cells incubated for 72 hrs by CellTiter-Glo luminescence assay; assay type: functional; conditions: K562, 72 h
[8] = test system: SK-MEL19; assay: Antiproliferative activity against human SK-MEL-19 cells incubated for 72 hrs by CellTiter-Glo luminescence assay; assay type: functional; conditions: SK-MEL19, 72 h
[9] = test system: PANC-1; assay: Antiproliferative activity against human PANC1 cells incubated for 72 hrs by CellTiter-Glo luminescence assay; assay type: functional; conditions: PANC-1, 72 h
[10] = Clearance in iv dosed Balb/c mouse administered as single dose measured after 0.08 to 4 hrs by HPLC/MS analysis relative to hepatic blood flow; assay type: ADME, organism-based; conditions: in vivo
[11] = test system: SK-BR-3; assay: Antiproliferative activity against human SKBR3 cells incubated for 72 hrs by CellTiter-Glo luminescence assay; assay type: functional; conditions: SK-BR-3, 72 h
[12] = test system: A549; assay: Antiproliferative activity against human A549 cells incubated for 72 hrs by CellTiter-Glo luminescence assay; assay type: functional; conditions: A549, 72 h
[13] = test system: HCT-116; assay: Antiproliferative activity against human HCT116 assessed as combination index at 20 uM incubated for 72 hrs in presence of GI50 dose of Lapatinib by CellTiter-Glo luminescence assay; assay type: functional
[14] = test system: T47D; assay: Antiproliferative activity against human T47D assessed as combination index at 20 uM incubated for 72 hrs in presence of GI50 dose of Lapatinib by CellTiter-Glo luminescence assay; assay type: functional
[15] = test system: PC-3; assay: Antiproliferative activity against human PC3 assessed as combination index at 20 uM incubated for 72 hrs in presence of GI50 dose of Vorinostat by CellTiter-Glo luminescence assay; assay type: functional
[16] = biological target: T1, Receptor-type tyrosine-protein kinase FLT3 (Homo sapiens, UniProt P36888); assay: Inhibition of human FLT3 using EAIYAAPFAKKK as substrate incubated for 60 mins by fluorescence based assay
T1 sequence (P36888 whole entry): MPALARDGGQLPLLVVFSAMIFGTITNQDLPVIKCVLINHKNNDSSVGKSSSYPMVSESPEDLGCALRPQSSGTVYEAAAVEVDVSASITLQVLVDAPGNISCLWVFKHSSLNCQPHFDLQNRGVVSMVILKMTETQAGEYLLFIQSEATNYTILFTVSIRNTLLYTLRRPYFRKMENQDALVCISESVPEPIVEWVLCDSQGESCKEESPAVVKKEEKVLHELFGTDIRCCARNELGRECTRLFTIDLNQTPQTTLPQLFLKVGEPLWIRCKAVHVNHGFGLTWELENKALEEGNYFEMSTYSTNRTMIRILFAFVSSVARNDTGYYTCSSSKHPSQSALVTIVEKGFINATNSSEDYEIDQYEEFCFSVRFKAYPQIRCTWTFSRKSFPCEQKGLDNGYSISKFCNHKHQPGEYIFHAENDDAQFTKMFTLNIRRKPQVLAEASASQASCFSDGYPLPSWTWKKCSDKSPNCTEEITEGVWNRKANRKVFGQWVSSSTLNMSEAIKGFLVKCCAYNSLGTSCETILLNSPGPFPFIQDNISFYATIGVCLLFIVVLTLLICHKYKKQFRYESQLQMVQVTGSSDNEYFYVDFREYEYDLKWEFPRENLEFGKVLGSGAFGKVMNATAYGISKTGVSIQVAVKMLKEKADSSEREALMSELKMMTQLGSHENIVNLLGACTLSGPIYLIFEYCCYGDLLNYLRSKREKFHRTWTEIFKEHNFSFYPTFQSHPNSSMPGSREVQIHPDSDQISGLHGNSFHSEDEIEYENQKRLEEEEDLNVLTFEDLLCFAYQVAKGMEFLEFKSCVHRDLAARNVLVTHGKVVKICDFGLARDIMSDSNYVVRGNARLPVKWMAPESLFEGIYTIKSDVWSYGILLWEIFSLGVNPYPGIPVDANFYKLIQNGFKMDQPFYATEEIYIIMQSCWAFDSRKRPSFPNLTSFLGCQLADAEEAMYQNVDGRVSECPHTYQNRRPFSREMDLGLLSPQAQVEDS

[17] = test system: MV4-11; assay: Antiproliferative activity against human MV4-11 assessed as combination index at 10 uM incubated for 72 hrs in presence of GI50 dose of Taxotere by CellTiter-Glo luminescence assay; assay type: functional
[18] = test system: NCI-H1650; assay: Antiproliferative activity against human NCI-H1650 cells incubated for 72 hrs by CellTiter-Glo luminescence assay; assay type: functional; conditions: NCI-H1650, 72 h
[19] = test system: PC-3; assay: Antiproliferative activity against human PC3 assessed as combination index at 20 uM incubated for 72 hrs in presence of GI50 dose of Bortezomib by CellTiter-Glo luminescence assay; assay type: functional
[20] = test system: A-375; assay: Antiproliferative activity against human A375 cells incubated for 72 hrs by CellTiter-Glo luminescence assay; assay type: functional; conditions: A-375, 72 h
[21] = test system: SK-MEL19; assay: Antiproliferative activity against human SK-MEL-19 assessed as combination index at 5 uM incubated for 72 hrs in presence of GI50 dose of GDC-0941 by CellTiter-Glo luminescence assay; assay type: functional
[22] = test system: JeKo-1; assay: Antiproliferative activity against human JeKo1 assessed as combination index at 10 uM incubated for 72 hrs in presence of GI50 dose of Palbociclib by CellTiter-Glo luminescence assay; assay type: functional
[23] = test system: PC-3; assay: Antiproliferative activity against human PC3 assessed as combination index at 20 uM incubated for 72 hrs in presence of GI50 dose of GDC-0941 by CellTiter-Glo luminescence assay; assay type: functional
[24] = test system: U-87 MG; assay: Antiproliferative activity against human U87MG cells incubated for 72 hrs by CellTiter-Glo luminescence assay; assay type: functional, U-87MG ATCC
[25] = test system: DU-145; assay: Antiproliferative activity against human DU145 assessed as combination index at 20 uM incubated for 72 hrs in presence of GI50 dose of Lapatinib by CellTiter-Glo luminescence assay; assay type: functional

- GI50 [2]: 13.6 µM
- GI50 [5]: 7.38 µM
- GI50 [7]: 19.9 µM
- GI50 [8]: 1.48 µM
- GI50 [9]: 25.4 µM
- CLH [10]: < 30%
- GI50 [11]: 21 µM
- GI50 [12]: 16.2 µM
- pIC50 [16]: < 5.00
- GI50 [18]: 22.5 µM
- GI50 [20]: 21.8 µM
- GI50 [24]: 21.7 µM
Structure (SMILES): COCCN1CCOc2c1cnn1c(-c3ccc4cccc(NCC5CCNCC5)c4n3)nnc21
- CI [1]: 0.0001
- CI [3]: 0.351
- CI [4]: 0.43
- CI [6]: 0.047
- CI [13]: 0.001
- CI [14]: 0.0001
- CI [15]: 0.346
- CI [17]: 0.526
- CI [19]: 0.313
- CI [21]: 0.308
- CI [22]: 0.108
- CI [23]: 0.094
- CI [25]: 0.0001
